Where no end group is shown, it is not given here.
How the values were obtained:
[1] = test system: rat facial nerve; test: Rat facial nerve compression model of peripheral nerve injury, restoration of whisker movement; format: in vivo
Experimental: In the study in vivo, topiramate was evaluated in a rat facial nerve compression model of peripheral nerve injury. Rats were anesthetized, their skin and muscle excised to visualize the facial nerve. The nerve was injured near the stylom by compression with forceps. The wound was sutured and the rat allowed to recover before compound administration. The rats were divided into three groups: vehicle-treated, topiramate-treated (p.o., 20 mg/kg) and α-MSH-treated (s.c., 1 mg/kg). Compounds were administered twice daily for 14 days post-surgery. Facial nerve compression causes paralysis of the whisker muscle ipsilateral to the injury site. Restoration of whisker movement (lesioned versus non-lesioned side) was monitored daily for 14 days. Spontaneous recovery of whisker movement was detected as early as 10 days post-surgery with full recovery achieved by 13 days.
FIG. 3 is a line graph illustrating the effects of topiramate and α-MSH on the restoration of facial nerve function in rats, as measured by the rate whisker movement. The total rate of whisker movement on the side that the facial nerve was not injured was assigned a value of 100. Whisker movement on the side of the injured nerve is presented as a percent ±SEM of the whisker movement on the non-injured side. The rate of whisker movement was monitored visually by a skilled observer blinded to the treatment each rat received.

[2] = test system: simple and complex partial seizures and secondarily generalized seizures; settings: human epilepsy; cited from earlier work
[3] = test system: rat hippocampal cells; test: Neurite outgrowth in rat hippocampal cell cultures, MAP-2 immunofluorescence; format: cell-based; settings: seven days in culture, concentrations ranging from 100 nM to 100 μM, P<0.05
Experimental: In studies in vitro, cultures of rat hippocampal and cerebral cortical cells were established from embryonic day 18 pups. The cells were grown in culture wells ([…]), or the neurotrophic factors BDNF (brain-derived neurotrophic, 10 ng) and α-MSH (alpha-melanocyte stimulating hormone, 50 nM), or vehicle (isotonic saline). Each compound was added to the culture medium in a specified set of wells at the time the cells were plated and then again four days later when the culture media was removed and replaced with fresh media. On the seventh day in culture, the cells were treated with formalin, a tissue fixative. Subsequently, the cells were treated with a fluorescein-labeled antibody specific for microtubule associated protein-2 (MAP-2), a selective marker for dendritic processes. The amount of fluorescein-labeled antibody bound to MAP-2 (FITC signal) in each well was analytically determined. This information was then used to calculate the relative degree of neurite outgrowth for the cells in each well. […] FIG. 1 is a bar graph illustrating the effects of topiramate, BDNF,α-MSH and GPI on neurite outgrowth in rat hippocampal cell cultures, as measured by MAP-2 immunofluorescence. […]

[4] = test system: animal model of kindled epilepsy; settings: cited from earlier work
[5] = test system: rodent models of epilepsy; settings: several rodent models of epilepsy; cited from earlier work
[6] = test system: rat cerebral cortical cells; test: Neurite outgrowth in rat cerebral cortical cell cultures, MAP-2 immunofluorescence; format: cell-based; settings: p<0.05
Experimental: In studies in vitro, cultures of rat hippocampal and cerebral cortical cells were established from embryonic day 18 pups. The cells were grown in culture wells (plates) for seven days in the presence of various concentrations of topiramate ([…]), or the neurotrophic factors BDNF (brain-derived neurotrophic, 10 ng) and α-MSH (alpha-melanocyte stimulating hormone, 50 nM), or vehicle (isotonic saline). Each compound was added to the culture medium in a specified set of wells at the time the cells were plated and then again four days later when the culture media was removed and replaced with fresh media. On the seventh day in culture, the cells were treated with formalin, a tissue fixative. Subsequently, the cells were treated with a fluorescein-labeled antibody specific for microtubule associated protein-2 (MAP-2), a selective marker for dendritic processes. The amount of fluorescein-labeled antibody bound to MAP-2 (FITC signal) in each well was analytically determined. This information was then used to calculate the relative degree of neurite outgrowth for the cells in each well. […] FIG. 2 is a bar graph illustrating the effects of topiramate, BDNF,α-MSH and GPI on neurite outgrowth in rat cerebral cortical cell cultures, as measured by MAP-2 immunofluorescence. […]

Compound: α-MSH: alpha-melanocyte stimulating hormone, neurotrophic factor used as comparator (SYSMEHFRWGKPV; ends and bridges not checked; UniProt P01189 138-150, looked up)
- increase in whisker movement recovery versus vehicle, days 11 and 12 ([1]; s.c., 1 mg/kg twice daily, days 11 and 12 post-surgery): smaller, statistically nonsignificant increase

Compound: CC1(C)O[C@@H]2[C@@H](CO[C@@]3(COS(N)(=O)=O)OC(C)(C)O[C@@H]23)O1 [topiramate, 2,3:4,5-bis-O-(1-methylethylidene)-β-D-fructopyranose sulfamate]
- whisker movement recovery, day 11 ([1]; p.o., 20 mg/kg twice daily, day 11 post-surgery, vehicle=19%, p<0.001): 60%
- whisker movement recovery, day 12 ([1]; p.o., 20 mg/kg twice daily, day 12 post-surgery, vehicle=68%, p<0.01): 92%
- efficacy in treating seizures in clinical trials [2]: effective as adjunctive therapy or as monotherapy
- increase in neurite outgrowth (FITC signal, MAP-2) versus vehicle [3]: significantly higher
- block of seizures [4]: effectively block seizures
- block of seizures [5]: effectively block seizures
- neurite outgrowth ([6]; 100 nM): 119 % of control
- neurite outgrowth ([6]; 10 μM): 119 % of control

From patent publication US6583172B1, “Anticonvulsant derivatives useful in treating chronic neurodegenerative disorders” (priority 1999, dated 2003)
